{"source": "paper PMC12171880", "about": "“Selectivity and Safety Characterization of a Xanthine–Imidazothiazole Lead Structure: a Novel Tryptophan Hydroxylase Inhibitor of Peripheral Serotonin Synthesis” (ACS Pharmacology & Translational Science, 2025)", "key": {"recombinant human TH": {"molecular_target": "T1, recombinant human TH (Homo sapiens, UniProt P07101)", "T1 construct": "For purification of MBP-tagged full-length PAH and TH; made in house; host or cells: E. coli T7 Express (NEB) with pRARE2", "T1 sequence (P07101 whole entry)": "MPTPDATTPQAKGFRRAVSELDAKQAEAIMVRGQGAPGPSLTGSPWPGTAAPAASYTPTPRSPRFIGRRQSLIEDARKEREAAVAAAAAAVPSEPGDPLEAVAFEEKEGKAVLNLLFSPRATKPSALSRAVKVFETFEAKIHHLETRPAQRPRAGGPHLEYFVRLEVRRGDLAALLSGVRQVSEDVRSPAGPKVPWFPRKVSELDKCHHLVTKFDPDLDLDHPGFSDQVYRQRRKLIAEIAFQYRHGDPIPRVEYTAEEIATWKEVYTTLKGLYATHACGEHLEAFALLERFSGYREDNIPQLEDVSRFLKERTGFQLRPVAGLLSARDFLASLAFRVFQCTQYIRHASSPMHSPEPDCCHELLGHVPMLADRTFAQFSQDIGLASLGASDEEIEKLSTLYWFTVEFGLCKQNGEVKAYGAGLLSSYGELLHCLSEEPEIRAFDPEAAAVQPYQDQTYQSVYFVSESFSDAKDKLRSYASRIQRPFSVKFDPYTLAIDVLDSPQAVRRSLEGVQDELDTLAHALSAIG", "assay": "TH enzymatic activity assay (fluorescence, 96-well)", "assay_type": "biochemical", "method": "The TH enzymatic activity assay was performed using a 96-well plate format (Greiner). […] To initiate the reaction, L-Tyr (Fluka) was added (final concentration, 30 μM). The assay contained positive control samples (complete reaction mix, no inhibitor test compound), negative control samples (reaction mix without BH4), and an additional L-Tyr control (reaction mix without BH4, spiked with 25.5 μM or 27 μM L-Tyr) to measure the progression of the enzymatic reaction. All samples were measured in technical triplicates. The TH assay was performed at RT for 30 min. Depletion of the reaction substrate (L-Tyr) was continuously monitored at 240 s intervals by fluorescence measurements (ex.280 nm/em.306 nm) for 12 min using a Tecan Infinite 200 plate reader.\nNegative control values (no enzyme or no substrate) were deducted from the positive control (full enzyme activity) and test compound values. Subsequently, the data were normalized (Pos. Ctr. = 100% of the enzyme activity). The results were further analyzed with GraphPad Prism 9 using the nonlinear regression model: log(inhibitor) vs. response−variableslope(fourparameters) which fits the following equation to the data: Y=Bottom+(Top−Bottom)/(1+10^((logIC50−X)×HillSlope))\nThe IC50 values were calculated from three independent experiments and are given as the mean ± SD."}, "rat homolog of TH": {"molecular_target": "T2, rat homolog of TH (Rattus norvegicus, UniProt P04177)", "T2 construct": "Eurofins Cerep (contract screening)", "T2 sequence (P04177 whole entry)": "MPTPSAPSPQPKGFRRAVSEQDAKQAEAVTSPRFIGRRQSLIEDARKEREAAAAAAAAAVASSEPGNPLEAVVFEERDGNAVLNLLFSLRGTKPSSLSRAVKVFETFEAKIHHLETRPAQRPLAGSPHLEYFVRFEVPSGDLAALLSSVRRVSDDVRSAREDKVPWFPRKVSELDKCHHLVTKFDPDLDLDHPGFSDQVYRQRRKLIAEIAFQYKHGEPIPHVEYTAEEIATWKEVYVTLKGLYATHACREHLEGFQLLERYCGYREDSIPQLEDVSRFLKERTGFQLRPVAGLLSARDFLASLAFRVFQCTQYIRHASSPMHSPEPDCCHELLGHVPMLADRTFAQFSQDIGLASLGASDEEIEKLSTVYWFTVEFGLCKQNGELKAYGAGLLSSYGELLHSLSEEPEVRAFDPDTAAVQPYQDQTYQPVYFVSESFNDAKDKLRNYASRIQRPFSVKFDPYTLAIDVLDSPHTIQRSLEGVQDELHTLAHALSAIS", "assay": "Eurofins Diversity Panel enzyme assay, rat TH", "assay_type": "biochemical", "method": "TPT-004 was evaluated at a concentration of 10 μM in a total of 97 binding, enzyme, and uptake assays (Diversity Panel) by Eurofins Cerep (Celle l’Evescault, France). Compound binding was calculated as % inhibition of the binding of a ligand specific to each target. The compound enzyme inhibition effect was calculated as percentage inhibition of the control enzyme activity. Results showing an inhibition (or stimulation for assays run under basal conditions) of >50% are considered to represent significant effects of the test compounds. Results showing an inhibition (or stimulation) between 25% and 50% are indicative of weak to moderate effects. Results showing an inhibition (or stimulation) lower than 25% are not considered significant and are mostly attributable to variability in the signal around the control level. […] In each experiment, and if applicable, the respective reference compound was tested concurrently with TPT-004, and the data were compared with historical values determined at Eurofins. […]\nThe results are expressed as a percent of control-specific binding: measured specific binding/control specific binding×100 and as a percent inhibition of control-specific binding: 100−(measured specific binding/control specific binding×100) obtained in the presence of TPT-004. […]"}, "Sprague–Dawley rats [1]": {"system": "Sprague–Dawley rats", "assay": "Dose-range finding study in rats, in-life phase", "assay_type": "in vivo, rat", "method": "The in-life phase of the experiment was performed at Pharmacelsus GmbH (Saarbrücken, Germany) and enrolled 24 Sprague–Dawley rats (12 males and 12 females) provided by Janvier Laboratories (France); the animals were 7 weeks old at delivery. Inclusion criteria (sex, appropriate body weight, and absence of behavioral changes) were established prior to the study’s commencement. The animals were housed in a temperature-controlled room (20–24 °C) and maintained in a 12 h light/12 h dark cycle. Before the start of the study, the animals underwent a six-day acclimation period. Food and water were available ad libitum throughout the duration of the study.\n(§1) TPT-004 was formulated in 0.5% (w/v) CMC-Na in water and administered by oral gavage (PO) twice daily (b.i.d.) with a 12 h interval to the treatment groups (3 male and 3 female Sprague–Dawley rats each) for 8 days (15 successive applications). Rats were dosed with 10, 45, and 200 mg/kg, i.e., daily doses of 20, 90, and 400 mg/kg. In addition, a control group was dosed at the same frequency as the vehicle (0.5% CMC-Na).\n(§2) Blood samples were collected as described below. The animal sacrifice (exsanguination) was performed on day 8. During the necropsy, the selected organs were collected, weighed, and shipped to a third-party laboratory for histopathological examination (as described below)."}, "Sprague–Dawley rats [2]": {"system": "Sprague–Dawley rats", "assay": "Dose-range finding study in rats, necropsy and organ weight", "assay_type": "in vivo, rat", "conditions": "for Organ weight, Brain / Organ weight, Heart / Organ weight, Kidney / Organ weight, Liver / Organ weight, Lung / Organ weight, Ovary (n=3 per group) / Organ weight, Spleen / Organ weight, Testis (n=3 per group): day 8", "method": "as §1, §2"}, "mice": {"system": "mice", "conditions": "14 days repeated oral treatment, 10 or 50 mg/kg BID, previous study; cited from earlier work"}, "[3]": {"system": "MC38 colorectal carcinoma model", "conditions": "mouse colorectal carcinoma; previous study; cited from earlier work"}, "[4]": {"conditions": "10, 45, or 200 mg/kg BID PO, 8 days"}, "[5]": {"conditions": "10, 45 or 200 mg/kg BID PO, D1 to D8"}}, "note": "Several values for one entry are separate records, joined by “and”; a condition that tells them apart may be missing. Equal values may be shown once.", "data": [{"compound": "CCn1c(=O)[nH]c(=O)c2c1nc(Cc1cn3cc(C)sc3n1)n2CC1COC1", "note": "[TPT-004]", "values": [{"measurement": "Mean TH activity [%]", "setting": "recombinant human TH; 10 nM", "result": 92.60, "unit": "%"}, {"measurement": "IC50", "setting": "recombinant human TH; 10 nM to 30 μM, 30 μM L-Tyr, 5 μM BH4", "result": 1360, "unit": "nM"}, {"measurement": "Mean TH activity [%]", "setting": "recombinant human TH; 30 nM", "result": 90.14, "unit": "%"}, {"measurement": "Mean TH activity [%]", "setting": "recombinant human TH; 100 nM", "result": 95.57, "unit": "%"}, {"measurement": "Mean TH activity [%]", "setting": "recombinant human TH; 300 nM", "result": 86.81, "unit": "%"}, {"measurement": "Mean TH activity [%]", "setting": "recombinant human TH; 1 μM", "result": 58.14, "unit": "%"}, {"measurement": "Mean TH activity [%]", "setting": "recombinant human TH; 3 μM", "result": 28.97, "unit": "%"}, {"measurement": "Mean TH activity [%]", "setting": "recombinant human TH; 10 μM", "result": 6.59, "unit": "%"}, {"measurement": "Mean TH activity [%]", "setting": "recombinant human TH; 30 μM", "result": -6.30, "unit": "%"}, {"measurement": "Selectivity ratio TH IC50 : TPH1 IC50", "setting": "recombinant human TH; calculated from determined IC50 values", "result": 40.71}, {"measurement": "IC50", "setting": "recombinant human TH; supplementary CSV", "result": 1360, "unit": "nM"}, {"measurement": "inhibition at 10 µM", "setting": "rat homolog of TH", "result": 87.8, "unit": "%"}, {"measurement": "clinical signs", "setting": "Sprague–Dawley rats [1]; [4]", "result": "None of the rats exhibited clinical signs"}, {"measurement": "survival", "setting": "Sprague–Dawley rats [1]; [4]", "result": "All of the animals survived"}, {"measurement": "body weight", "setting": "Sprague–Dawley rats [1]; [5]", "result": "increased normally"}, {"measurement": "food consumption", "setting": "Sprague–Dawley rats [1]; [5]", "result": "in the same range as that of the control group"}, {"measurement": "Organ weight, Brain", "setting": "Sprague–Dawley rats [2]; 10 mg/kg PO BID", "result": 6.8, "unit": "g/kg body weight"}, {"measurement": "Organ weight, Heart", "setting": "Sprague–Dawley rats [2]; 10 mg/kg PO BID", "result": 3.5, "unit": "g/kg body weight"}, {"measurement": "Organ weight, Kidney", "setting": "Sprague–Dawley rats [2]; 10 mg/kg PO BID", "result": 3.8, "unit": "g/kg body weight"}, {"measurement": "Organ weight, Liver", "setting": "Sprague–Dawley rats [2]; 10 mg/kg PO BID", "result": 39.4, "unit": "g/kg body weight"}, {"measurement": "Organ weight, Lung", "setting": "Sprague–Dawley rats [2]; 10 mg/kg PO BID", "result": 5.3, "unit": "g/kg body weight"}, {"measurement": "Organ weight, Ovary (n=3 per group)", "setting": "Sprague–Dawley rats [2]; 10 mg/kg PO BID", "result": 0.72, "unit": "g/kg body weight"}, {"measurement": "Organ weight, Spleen", "setting": "Sprague–Dawley rats [2]; 10 mg/kg PO BID", "result": 2.9, "unit": "g/kg body weight"}, {"measurement": "Organ weight, Testis (n=3 per group)", "setting": "Sprague–Dawley rats [2]; 10 mg/kg PO BID", "result": 8.7, "unit": "g/kg body weight"}, {"measurement": "Organ weight, Brain", "setting": "Sprague–Dawley rats [2]; 45 mg/kg PO BID", "result": 6.5, "unit": "g/kg body weight"}, {"measurement": "Organ weight, Heart", "setting": "Sprague–Dawley rats [2]; 45 mg/kg PO BID", "result": 3.6, "unit": "g/kg body weight"}, {"measurement": "Organ weight, Kidney", "setting": "Sprague–Dawley rats [2]; 45 mg/kg PO BID", "result": 3.6, "unit": "g/kg body weight"}, {"measurement": "Organ weight, Liver", "setting": "Sprague–Dawley rats [2]; 45 mg/kg PO BID", "result": 42.1, "unit": "g/kg body weight"}, {"measurement": "Organ weight, Lung", "setting": "Sprague–Dawley rats [2]; 45 mg/kg PO BID", "result": 5.2, "unit": "g/kg body weight"}, {"measurement": "Organ weight, Ovary (n=3 per group)", "setting": "Sprague–Dawley rats [2]; 45 mg/kg PO BID", "result": 0.55, "unit": "g/kg body weight"}, {"measurement": "Organ weight, Spleen", "setting": "Sprague–Dawley rats [2]; 45 mg/kg PO BID", "result": 2.8, "unit": "g/kg body weight"}, {"measurement": "Organ weight, Testis (n=3 per group)", "setting": "Sprague–Dawley rats [2]; 45 mg/kg PO BID", "result": 8.1, "unit": "g/kg body weight"}, {"measurement": "Organ weight, Brain", "setting": "Sprague–Dawley rats [2]; 200 mg/kg PO BID", "result": 6.7, "unit": "g/kg body weight"}, {"measurement": "Organ weight, Heart", "setting": "Sprague–Dawley rats [2]; 200 mg/kg PO BID", "result": 3.6, "unit": "g/kg body weight"}, {"measurement": "Organ weight, Kidney", "setting": "Sprague–Dawley rats [2]; 200 mg/kg PO BID", "result": 4.0, "unit": "g/kg body weight"}, {"measurement": "Organ weight, Lung", "setting": "Sprague–Dawley rats [2]; 200 mg/kg PO BID", "result": 5.2, "unit": "g/kg body weight"}, {"measurement": "Organ weight, Ovary (n=3 per group)", "setting": "Sprague–Dawley rats [2]; 200 mg/kg PO BID", "result": 0.65, "unit": "g/kg body weight"}, {"measurement": "Organ weight, Spleen", "setting": "Sprague–Dawley rats [2]; 200 mg/kg PO BID", "result": 2.8, "unit": "g/kg body weight"}, {"measurement": "Organ weight, Testis (n=3 per group)", "setting": "Sprague–Dawley rats [2]; 200 mg/kg PO BID", "result": 8.4, "unit": "g/kg body weight"}, {"measurement": "Organ weight, Liver", "setting": "Sprague–Dawley rats [2]; 200 mg/kg PO BID, vehicle 41.2 ± 2.2, p = 0.0128", "result": "45.2 g/kg body weight and 45.2 ± 1.2 g/kg body weight"}, {"measurement": "gross lesions at necropsy", "setting": "Sprague–Dawley rats [2]; [4]", "result": "No test-item-related gross lesions"}, {"measurement": "weight of the organs, vehicle vs treatment groups, overall", "setting": "Sprague–Dawley rats [2]; 10, 45 or 200 mg/kg BID PO, 8 days, except liver at 200 mg/kg BID", "result": "No significant difference"}, {"measurement": "neuropsychiatric effects in behavioral tests", "setting": "mice", "result": "no neuropsychiatric effects were observed"}, {"measurement": "dose needed to achieve the therapeutic effects", "setting": "[3]", "result": 50, "unit": "mg/kg BID"}]}]}
